Results as given in US10500388B2 (priority 2005, dated 2019).
Like-named read-outs stand apart in the source and are kept apart here.

Columns and labels:
[1] = tested on: E coli; type: cell-based, Escherichia coli
Description: A suitable method is the serial plate transfer test (SPTT) (Bayston R. Grove N, Siegel J, Lawellin D, Barsham S. Prevention of hydrocephalus shunt catheter colonisation in vitro by impregnation with antimicrobials. J Neurol Neurosurg Psychiatr 1989, 52: 605-689) which allows for a portion of an antimicrobial material, typically a catheter segment of approximately 5 mm length, to be placed on the surface of an agar plate seeded with susceptible index bacteria in such a way that the cut ends of the test catheter are not in contact with the eluting surface, by means of a well or other arrangement.
Wound guards (e.g. for protection of catheter or external fixation pin exit sites) in the form of discs of silicone elastomer of 2.5 cm diameter and 3.5 mm thickness were impregnated with either rifampin+clindamycin (A), rifampin+clindamycin+triclosan (B) or triclosan alone (C). […] After overnight incubation, inhibition zones were measured and the discs were transferred to a further seeded plate, and this process repeated until no zones were seen. Any bacterial colonies growing inside the inhibition zones or under the discs were tested for minimal inhibitory concentration (MIC) to triclosan and their identities with the original inoculum determined by pulse field gel electrophoresis. […]

[2] = tested on: E. coli; test: MIC of triclosan for inoculum and for colonies growing inside zones or under discs; type: cell-based; conditions: Escherichia coli
Description: (§1) Wound guards (e.g. for protection of catheter or external fixation pin exit sites) in the form of discs of silicone elastomer of 2.5 cm diameter and 3.5 mm thickness were impregnated with either rifampin+clindamycin (A), rifampin+clindamycin+triclosan (B) or triclosan alone (C). The discs were then sterilised by autoclaving, and placed on agar plates seeded with the gram-positive bacteria Staphylococcus aureus. After overnight incubation, inhibition zones were measured and the discs were transferred to a further seeded plate, and this process repeated until no zones were seen. Any bacterial colonies growing inside the inhibition zones or under the discs were tested for minimal inhibitory concentration (MIC) to triclosan and their identities with the original inoculum determined by pulse field gel electrophoresis. The results were as follows:
The simulation was repeated using plates seeded with the gram-negative bacterium E coli.

[3] = tested on: S. aureus; test: as above; type: cell-based; conditions: Staphylococcus aureus
Description: as §1, with “electrophoresis.” for “electrophoresis. The results were as follows:”

[4] = read-out: MIC of triclosan for resistant mutants

Row | SMILES | Activity against E. coli [1] | MIC ([2]; read-out: MIC of triclosan for inoculum) [µg/mL] | MIC [2, 4] [µg/mL] | MIC [3, 4] [µg/mL] | MIC ([3]; S. aureus original inoculum, read-out: MIC of triclosan for inoculum) [µg/mL]
1 | CO[C@H]1/C=C/O[C@@]2(C)Oc3c(C)c(O)c4c(O)c(c(/C=N/N5CCN(C)CC5)c(O)c4c3C2=O)NC(=O)/C(C)=C\C=C\[C@H](C)[C@H](O)[C@@H](C)[C@@H](O)[C@@H](C)[C@H](OC(C)=O)[C@@H]1C [Rifampin, 2-(4-methyl-1-piperazinyl-iminomethyl)-rifamycin SV] | no activity |  |  |  | 
2 | Oc1cc(Cl)ccc1Oc1ccc(Cl)cc1Cl [Triclosan] |  | 16 | 250 | 125 | 3.75
3 | CCC[C@@H]1C[C@@H](C(=O)N[C@@H]([C@H]2O[C@H](SC)[C@H](O)[C@@H](O)[C@H]2O)[C@H](C)Cl)N(C)C1 [clindamycin] | no activity |  |  |  | 
